# Values quoted from earlier work as cited in patent publication US20060222695A1, “Deoxycholic acid liposome-based dermatological topical preparation” (priority 2005, published 2006).
# Tested on: cell cultures and tissue specimen
# Conditions: similar to the effects of laboratory detergents
compound,measurement,value
C[C@H](CCC(=O)O)[C@H]1CC[C@H]2[C@@H]3CC[C@@H]4C[C@H](O)CC[C@]4(C)[C@H]3C[C@H](O)[C@]12C [Deoxycholic acid],effect on cells and fat tissue,"loss of cell viability, cell membrane lysis and disruption of fat architecture"
